From patent US20050261246A1, “Methods for treating inflammatory and autoimmune diseases” (priority 2004, published 2005)

Key:
[1] = system: VEGF production in human cancer cell lines; assay: VEGF production in human cancer cell lines (ELISA); assay type: cell-based
Experimental: (A) Effect of SNS on VEGF production was analyzed in two cancer cell lines (both supernatants and cell lysates). (B) The supernatant from control and drug treated H460 cells was analyzed for the level of VEGF (pg/ml). C. […] Statistical analyses were performed using one-way ANOVA.
As discussed above, SNS and pancratastatin were originally synthesized as an anti-cancer agent. The inventors also examined the effect of SNS and pancratastatin on the production of VEGF in human cancer cell lines (FIG. 2). […] This analysis had been performed at least 3-5 times depending on the cell lines and drug used, with statistical analysis performed using one-way ANOVA.

[2] = system: NO production in LPS-stimulated RAW 264.7 cells; assay: NO production in LPS-stimulated RAW264.7 macrophage cell line (Griess reaction); assay type: cell-based, mouse; settings: pre-treated with different concentrations, then 1 ng/ml LPS
Experimental: Cells were pre-treated with different concentrations of SNS and then followed by stimulation with LPS. C is medium control. LPS, positive control without SNS treatment. The statistical analysis was performed using one-way ANOVA.
In further tests, we investigated the effect of SNS on the production of NO in a mouse macrophage cell line, RAW264.7. Cells were pre-treated with different concentrations of SNS and subsequently stimulated with 1 ng/ml of LPS. The level of NO production was measured by a spectrophotographic method using the Griess reaction. […] “C” is medium control, and “LPS” is positive control without SNS treatment. This analysis had been performed at least 3-5 times depending on the cell lines and drug used, with statistical analysis performed using one-way ANOVA.

[3] = system: Lewis rats with Adjuvant-Induced Arthritis; assay: Adjuvant-induced arthritis (AA) rat model: footpad width, radiographs, spleen weight; assay type: in vivo
Experimental: Summary: Adjuvant-Induced Arthritis (“AA”) was induced by intradermal injection of complete Freund's adjuvant (CFA) into the base of the tail of Lewis rats. Controls received intradermal injections of the arthritogenic antigen, M. butyricum suspended in saline. […] AA and control rats were given once-daily intraperitoneal (i.p.) injections of narcistatin (5 mg/Kg/day, in 250 μl sterile saline), vehicle, or no treatment initiated at disease onset and continued through severe disease.
Adult male Lewis rats (200-250 g) were purchased from Charles River Laboratories, Raleigh, N.C. and housed two per cage. The animals were allowed to acclimate to the Sun Health Research Institute's vivarium for 7 days prior to the start of the experiment. The animals were maintained on a 12-h off/on light schedule. For AA rats rodent Diet (Purina Lab Diet 5001) was placed in the bottom of the cage and water was supplied using long-stemmed sipper tubes for easy access to food and water. […] Animals were weighed and observed daily to ensure adequate weight gain and good general health. Body weights and footpad measures were started 1 week prior to the first adjuvant injection to acclimate the animals to these mild stresses and obtain baseline data. Other than the development of arthritis, the good health of the animals was maintained throughout the course of the experiments. Protocols for the use and care of the animals in the study were approved prior to beginning the experiments by the Sun Health Research Institute Animal Use and Care Committee and complied with NIH guidelines for the humane use and care of research animals. Dorsoplantar footpad measurements were completed every other day. Prior to sacrifice the animals were given a 1.0 ml intraperitoneal (i.p.) injection of 8% chloral hydrate in sterile saline and radiographs were taken of their hind limbs to assess disease severity. The animals were then sacrificed using an overdose of chloral hydrate.
Sodium narcistatin was synthesized as previously described (27). CFA was prepared by emulsifying Mycobacterium butyricum (0.03 g dried and heat killed; Difco, Detroit, Mich. in 10 ml sterile mineral oil). M. butyricum (0.03 g) also was suspended in 10 ml sterile saline. The CFA and M. butyricum in saline were prepared by grinding the M. butyricum with a mortar and pestle until the lyophilized bacteria had turned from a light beige to an eggshell white powder. The mineral oil or saline was then slowly worked into the heat-killed bacteria using the mortar and pestle. The suspensions were treated with a sonic dismembraner for 5 min to ensure that the bacterial cell wall remained suspended in the mineral oil or saline until the animal injections. While there is variability in severity of disease development between the batches of adjuvant, there is very little variability within each batch. All animals in each experiment were challenged with the same preparation of adjuvant and 100% of the animals developed arthritis with similar timing of disease onset.
Lewis rats were randomly assigned into five experimental groups of four animals per group. The experimental groups were 1) saline/M. Butyricum suspended in saline (non-arthritic; control for drug and antigen challenge), 2) sodium narcistatin/M. Butyricum suspended in saline (non-arthritic; drug control for antigen challenge), 3) no treatment-CFA (arthritic; control for stress of injections), 4) saline-CFA (arthritic; control for drug treatment), and 5) sodium-narcistatin-CFA (arthritic) treatments. The experiment was completed with an N=4 then repeated with an additional N=4. The data from each group in the first and repeated experiment were compared. No statistical differences between the findings from these repeat experiments were found; therefore, the data was combined to give an N=8 for each experimental group. CFA or saline/M. Butyricum injections were given on experimental day 1. […]

[4] = system: TNFα and MCP-1 production; assay: In vivo air-pouch assay, LPS-stimulated cytokine production; parameters: species or system mouse; settings: SNS 5 mg/kg then LPS 1 μg/ml, vs LPS-stimulated controls
Experimental: The reduction of TNF-alpha (P=0.04) and MCP-1 (P=0.03) in SNS-treated mice upon LPS stimulation. PBS_PBS: PBS followed by PBS; PBS_LPS: PBS followed by LPS (1 μg/ml); SNS_PBS: SNS followed by PBS; SNS_LPS: SNS (5 mg/kg) followed by LPS (1 μg/ml). Results are derived from three independent experiments. Statistical analysis was performed using one-way ANOVA.
To further test effects of SNS in whole animals, we established an air-pouch assay to evaluate the effect of the compound, SNS, on LPS-stimulated cytokine production, following a procedure described previously (9). (See FIG. 14) Mice were pre-treated with PBS or SNS then challenged with LPS. The pouch wash-out was then analyzed for cytokine production using BD™ CBA Mouse Inflammatory Kit (BD Biosciences).

[5] = AA rats, 5 mg/Kg/day i.p., vs vehicle treated AA rats

O=C1N[C@@H]2C(=C[C@H](O)[C@H]3OP(=O)(O)O[C@H]32)c2cc3c(c(O)c21)OCO3 [SNS, sodium narcistatin]
VEGF production, narcistatin compared with pancratistatin [1]: comparable inhibition on VEGF production
effect on VEGF production/secretion ([1]; human cancer cell lines, ELISA): significantly suppresses the secretion of VEGF
NO production [2]: concentration-dependent inhibition of NO production
reduction of bone loss, as measured by radiographic analysis [3, 5]: ~50%
reduction of hind limb inflammation, as measured by dorsoplantar width [3, 5]: ~70%
time of disease onset ([3]; CFA-challenged rats): did not change the time of disease onset
soft tissue swelling of the dorsoplantar footpads ([3]; CFA-challenged rats, day 23 to day 28 post-immunization, vs vehicle-treated arthritic rats): significantly decreased the soft tissue swelling
redness and soft tissue swelling of hind limbs ([3]; arthritic rats, daily treatment day 10 through day 28, photomicrographs day 28): dramatically decreased the redness and soft tissue swelling
bone destruction and cartilage loss in radiographs ([3]; arthritic rats, day 28, vs saline-treated arthritic rats): decreases in bone destruction (mainly osteoporosis and erosions) and cartilage loss
radiographic scores of ankle joints ([3]; arthritic rats, day 28, vs vehicle or no treatment, P<0.05): significantly lower radiographic scores
spleen weight, arthritic rats ([3]; day 28, vs Saline-CFA): blocked this increase in spleen weight
spleen weight, antigen-challenged non-arthritic rats ([3]; day 28, vs saline): did not differ
footpad width in non-arthritic animals ([3]; non-arthritic, vehicle vs drug): no differences in footpad width
MCP-1 in air-pouch wash-out ([4]; P=0.03): significantly reduced
TNFα in air-pouch wash-out ([4]; P=0.04): significantly reduced
